Where two headings read alike, the source gives them in different places.
Assays:
LmexNT1 [1] = type: cell-based, Leishmania mexicana; settings: inhibition of 1 μM [3H]-thymidine uptake, 20 s
LmexNT1 [2] = test: [3H]-adenosine uptake by L. mexicana promastigotes; type: cell-based, Leishmania mexicana; settings: for Ki: inhibition of 0.05 μM [3H]-adenosine uptake, read-out: Ki
[3] = test system: L. mexicana promastigotes; type: cell-based, Leishmania mexicana; settings: for inhibition of 0.25 μM [3H]-uridine transport: maximal inhibition, uracil up to 2.5 mM (Fig. 3B)
Method in brief: (§1)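 Mid-to-late log-phase parasites were washed and held at 10^8 cells ml^−1 in HEPES/bicarbonate buffer with glucose, pH 7.3, then incubated at ambient temperature with radiolabelled permeant, with or without unlabelled substrate or inhibitors. Uptake was stopped with ice-cold excess unlabelled permeant and oil centrifugation, then counted by scintillation; saturation, inhibition and time-course data fitted by regression, in triplicate.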

Lmex5F2′dURes = type: cell-based, Leishmania mexicana; settings: 0.5 μM [3H]-uridine, 0.1 μM [3H]-adenosine, 0.25 μM [3H]-uracil
Method in brief: as §1

LmexNT1 [4] = type: cell-based, Leishmania mexicana; settings: for Ki: inhibition of 0.25 μM [3H]-uridine uptake in the presence of 1 mM uracil
Method in brief: as §1

LmajUUT1 = test: [3H]-uridine uptake by L. major promastigotes, high-affinity uracil-sensitive component; type: cell-based, Leishmania major; settings: for Ki: inhibition of 0.25 μM [3H]-uridine uptake; for Km: double reciprocal plot, n = 3, read-out: Km (1)
Description: (§2) Using the standard uptake technique as described for T. brucei and Leishmania species ([Wallace et al., 2002], [Al-Salabi and De Koning, 2005], [Gudin et al., 2006]), the dose- or time-dependent uptake of radiolabeled permeants was investigated.
(§3) Briefly, cells in the mid-to-late logarithmic stage of growth were harvested by centrifugation for 10 min at 1500×g. The cells were washed twice with transport assay buffer (AB: 33 mM HEPES, 98 mM NaCl, 4.6 mM KCl, 0.55 mM CaCl2, 0.07 mM MgSO4, 5.8 mM NaH2PO4, 0.3 mM MgCl2, 23 mM NaHCO3, 14 mM glucose, pH 7.3), resuspended at a density of 10^8 cells ml^−1 in AB, and left for 20–30 min at room temperature to recover from centrifugation stress. One hundred microliters of cell suspension was incubated at ambient temperature for a predetermined time with 100 μl radiolabeled test compound, in the presence or absence of unlabeled substrate or other competitive inhibitors. The incubation was terminated by the addition of ice-cold stop solution (AB containing saturating levels, usually 10 mM, of unlabeled permeant) and centrifugation through oil for 1 min at 13,000 × g. […] Radioactivity was determined by liquid scintillation counting in a Beckman LS6000 TA scintillation counter. Saturation data, inhibition data, and time courses were plotted to equations for linear or non-linear regression (hyperbolic or sigmoid curves), as appropriate. All experiments were performed in triplicate and on at least three independent occasions.

LmajNT1 [5] = test: [3H]-uridine uptake by L. major promastigotes, low-affinity component; type: cell-based, Leishmania major; settings: for Ki: inhibition of 0.25 μM [3H]-uridine uptake
Description: as §2, §3

LmajNT1 [6] = test: [3H]-thymidine uptake by L. major promastigotes; type: cell-based, Leishmania major; settings: inhibition of 0.25 μM [3H]-thymidine uptake (total LmajNT1.1 + LmajNT1.2), 5 min
L. major promastigotes = test: total [3H]-uridine uptake by L. major promastigotes; type: cell-based, Leishmania major
Description: as §2, §3

T. b. brucei strain B48 [7] = test: [3H]-inosine uptake in non-transfected T. brucei B48; type: cell-based, Trypanosoma brucei brucei; settings: 250 μM adenosine or 1 mM unlabeled inosine (Fig. 7B)
Description: as §2, §3

LmajNT2 = test: [3H]-inosine transport by T. brucei B48 cells expressing LmajNT2; type: cell-based, Leishmania major; settings: 250 μM adenosine
Description: Plasmid construction and transfection was performed according to [Munday et al. (2013)]. The nucleoside transporter genes were isolated from L. mexicana and L. major. […] The primers used in this study (Table S2) were designed to flank the gene of interest, one complementary to the sequence upstream of the 5′ end and the other complementary to the sequence downstream of the 3′ end. All of the nucleoside transporters genes were PCR-amplified from genomic DNA of each strain using the high-fidelity proof-reading polymerase Phusion (New England Biolabs) and cloned into the pGEMTeasy (Promega) vector prior to Sanger sequencing (Source BioScience, Glasgow, UK). […] After confirming the identity of each gene, the nucleoside transporter genes (LmajNT1A, LmajNT1B, LmajNT2, LmexNT1A, LmexNT1B, and LmexNT2) were ligated into the expression vector pHD1336 ([Biebinger et al., 1997]) and then were linearized with NotI digestion. All genes were verified by Sanger sequencing, prior to transfection into T. b. brucei clone B48. B48 parasites (1 × 10^7 cells) were washed into Human T Cell buffer for transfection using the desired cassette with an Amaxa Nucleofector using program X-001. Cells were transferred into pre-warmed HMI-9 medium and allowed to recover for 8–16 h at 37 °C and 5% CO2. Following recovery, transfectants were grown and cloned in selective medium containing 5 μg ml^−1 blasticidin S using limiting dilution.
as §2
Briefly, cells in the mid-to-late logarithmic stage of growth were harvested by centrifugation for 10 min at 1500×g. […] Radioactivity was determined by liquid scintillation counting in a Beckman LS6000 TA scintillation counter. […]

LdNT1.1 = test system: LdNT1.1; parameters: method as in Vasudevan et al., 1998; Landfear, 2001; settings: ref Vasudevan et al., 1998; Landfear, 2001; cited from earlier work
LdNT1.2 = test system: LdNT1.2; parameters: method as in Vasudevan et al., 1998; Landfear, 2001; settings: ref Vasudevan et al., 1998; Landfear, 2001; cited from earlier work
Lmex5FURes = type: cell-based, Leishmania mexicana; settings: 0.5 μM radiolabel
Method in brief: as §1

LmexUU1 = type: cell-based, Leishmania mexicana
Method in brief: as §1

T. b. brucei strain B48 [8] = test: microbe, parasite or virus in culture; type: cell-based; settings: Trypanosoma brucei, read-out: inhibition of 0.5 μM [3H]-uridine uptake, 250 μM inhibitor
Description: as §2
as §3, with “All experiments were performed in triplicate and on at least three independent occasions.” left out

Lmaj5F2′dURes = type: cell-based, Leishmania major; settings: 0.25 μM [3H]-uridine, 0.5 μM [3H]-uracil
Description: as §2, §3

Lmaj5FURes = type: cell-based, Leishmania major; settings: 0.5 μM radiolabel
Description: as §2, §3

LmajU1 = test system: LmajU1; parameters: method as in Papageorgiou et al., 2005; settings: ref Papageorgiou et al., 2005; cited from earlier work
[9] = target: P1 adenosine/inosine transporter; parameters: method as in De Koning and Jarvis, 1999; settings: ref De Koning and Jarvis, 1999; cited from earlier work
[10] = [3H]-uridine, high affinity component

Q: For Nc1ncnc2c1ncn2[C@@H]1O[C@H](CO)[C@@H](O)[C@H]1O [adenosine], which Ki (LmexNT1 [1]) is on record?
A: 0.25 ± 0.04 µM

Q: What about the rate of transport (LmexNT1 [2]; 0.1 μM [3H]-adenosine, linear over at least 30 s) of the same molecule?
A: 0.21 ± 0.01 pmol(10^7 cells)^−1s^−1

Q: And the Km (LmexNT1 [2]; [3H]-adenosine)?
A: 0.81 ± 0.16 µM

Q: And the Vmax (LmexNT1 [2]; [3H]-adenosine)?
A: 1.11 ± 0.19 pmol(10^7 cells)^−1s^−1

Q: And the “inhibition of 0.25 μM [3H]-uridine transport” value [3]?
A: ~100%

Q: And the “uptake of radiolabel, reduced compared to WT control cells” value (“uptake of radiolabel, reduced” below) (Lmex5F2′dURes)?
A: 89%

Q: And the Ki (LmexNT1 [4])?
A: 0.39 ± 0.09 µM

Q: And the Ki (LmajUUT1)?
A: 1.93 ± 0.49 µM

Q: And the Ki (LmajNT1 [5])?
A: 1.93 ± 0.49 µM

Q: And the Ki (LmajNT1 [6])?
A: 1.77 ± 0.21 µM

Q: And the Ki (L. major promastigotes; complete inhibition of [3H]-uridine transport (both components))?
A: 1.93 ± 0.49 µM

Q: What about the “inhibition of 50 nM [3H]-inosine transport” value (T. b. brucei strain B48 [7]) of the same molecule?
A: fully inhibited

Q: And the “inhibition of 50 nM [3H]-inosine transport” value (LmajNT2)?
A: 57%

Q: And the Km (LdNT1.1)?
A: ~0.2 µM

Q: And the Km (LdNT1.2)?
A: ~5 µM

Q: For O=c1cc[nH]c(=O)[nH]1 [uracil], which Ki (LmexNT1 [1]) is on record?
A: > 2500 µM

Q: What about the Ki (LmexNT1 [2]) of the same molecule?
A: > 2500 µM

Q: And the “inhibition of 0.25 μM [3H]-uridine transport” value [3]?
A: 48%

Q: And the Ki ([3]; read-out: Ki, uracil-sensitive uridine transporter, partial inhibition of 0.25 μM [3H]-uridine uptake, n = 5)?
A: 25.7 ± 6.6 µM

Q: What about the “uptake of radiolabel, reduced” value (Lmex5F2′dURes) of the same molecule?
A: unaffected

Q: And the “uptake of radiolabel, reduced” value (Lmex5F2′dURes; listed as [^3H]-uracil)?
A: not significantly different

Q: And the “uptake of radiolabel, lower than in WT control cells” value (shortened to “uptake of radiolabel, lower than”) (Lmex5FURes)?
A: 90.2%

Q: And the Ki (LmexNT1 [4])?
A: > 2500 µM

Q: And the rate of transport (LmexUU1; 0.25 μM [3H]-uracil, linear to at least 10 min)?
A: 0.0020 ± 0.0002 pmol(10^7 cells)^−1s^−1

Q: And the rate of transport (LmexUU1; 0.5 μM [3H]-uracil, linear over 10 min (Fig. 4B legend))?
A: 0.0020 ± 0.0002 pmol(10^7 cells)^−1s^−1

Q: What about the rate of transport (LmexUU1; 1 μM [3H]-uracil, linear over 120 s) of the same molecule?
A: 0.0030 ± 0.0002 pmol(10^7 cells)^−1s^−1

Q: What about the “inhibition of 0.5 μM [3H]-uracil transport” value (LmexUU1; 1 mM unlabeled uracil) of the same molecule?
A: 95%

Q: And the Vmax (LmexUU1; [3H]-uracil)?
A: 0.088 ± 0.010 pmol(10^7 cells)^−1s^−1

Q: And the Km (LmexUU1; [3H]-uracil, 4 min, n = 3)?
A: 29.7 ± 4.4 µM

Q: What about the Ki (LmajUUT1) of the same molecule?
A: 2.65 ± 0.6 µM

Q: What about the Ki (LmajNT1 [5]) of the same molecule?
A: > 1000 µM

Q: And the Ki (LmajNT1 [6])?
A: > 1000 µM

Q: What about the inhibition at 0.25 µM (L. major promastigotes; Leishmania major, 3 h, read-out: partial (maximal) inhibition of 0.25 μM [3H]-uridine transport) of the same molecule?
A: 77.2 ± 2.7%

Q: And the inhibition at 250 µM (T. b. brucei strain B48 [8])?
A: 75.7%

Q: What about the “uptake of radiolabel, lower than” value (Lmaj5F2′dURes) of the same molecule?
A: 80%

Q: What about the “uptake of radiolabel, lower than” value (Lmaj5F2′dURes; listed as [^3H]-uracil) of the same molecule?
A: 81.4%

Q: What about the “uptake of radiolabel, lower than” value (Lmaj5FURes) of the same molecule?
A: 95.7%

Q: What about the Km (LmajU1) of the same molecule?
A: 0.32 µM

Q: Which results are given for O=c1ccn([C@@H]2O[C@H](CO)[C@@H](O)[C@H]2O)c(=O)[nH]1 [uridine]?
A: Ki (LmexNT1 [1]): 9.1 ± 0.6 µM; Ki (LmexNT1 [2]): 16.8 ± 1.3 µM; Km ([3]; read-out: Km for the uridine flux, total flux, no uracil, n = 5): 7.15 ± 0.9 µM; Vmax (LmexNT1 [4]; [3H]-uridine, in the presence of 1 mM uracil): 0.74 ± 0.13 pmol(10^7 cells)^−1s^−1; Km (LmexNT1 [4]; [3H]-uridine, measured in the presence of 1 mM uracil): 13.3 ± 2.4 µM; Ki (LmexUU1; inhibition of [3H]-uracil uptake, 4 min): 2 ± 0.5 µM; maximal inhibition of [3H]-uracil transport (LmexUU1; n = 3): approximately 85%; Vmax (1) (LmajUUT1; [10]): 0.036 ± 0.004 pmol(10^7 cells)^−1s^−1; Km (LmajUUT1; [3H]-uridine, high affinity component, listed as [^3H]-uridine): 3.12 ± 0.61 µM; Km (LmajUUT1; [10]): 3.1 ± 0.6 µM; Vmax (2) (LmajNT1 [5]; [3H]-uridine, low affinity component): 0.15 ± 0.04 pmol(10^7 cells)^−1s^−1; Km (LmajNT1 [5]; [3H]-uridine, low affinity component, n = 3, read-out: Km (2)): 33.5 ± 7.3 µM; Km (L. major promastigotes; n = 3, read-out: apparent Km (single Michaelis-Menten saturation plot)): 7.3 ± 1.3 µM; Km (LdNT1.1): 5 µM; Km (LdNT1.2): 40 µM; Ki [9]: 830 µM

— PMC5407577, “Functional and genetic evidence that nucleoside transport is highly conserved in Leishmania species: Implications for pyrimidine-based chemotherapy” (International Journal for Parasitology: Drugs and Drug …, 2017)
